Values of other authors in patent US20200368163A1, “EN[…]-DISPERSIBLE CANNABINOID NANOPARTICLE COMPOSITIONS, METHODS AND SYSTEMS” (The Trustees of Princeton University, priority 2019, published 2020).

C=C(C)[C@@H]1CCC(C)=C[C@H]1c1c(O)cc(CCCCC)cc1O [CBD, Cannabidiol]
log P: ~6
